Experiment [1] addresses T1, retinoid X receptor alpha (RXRa) (Homo sapiens, UniProt P19793).
T1 sequence (P19793 1-462): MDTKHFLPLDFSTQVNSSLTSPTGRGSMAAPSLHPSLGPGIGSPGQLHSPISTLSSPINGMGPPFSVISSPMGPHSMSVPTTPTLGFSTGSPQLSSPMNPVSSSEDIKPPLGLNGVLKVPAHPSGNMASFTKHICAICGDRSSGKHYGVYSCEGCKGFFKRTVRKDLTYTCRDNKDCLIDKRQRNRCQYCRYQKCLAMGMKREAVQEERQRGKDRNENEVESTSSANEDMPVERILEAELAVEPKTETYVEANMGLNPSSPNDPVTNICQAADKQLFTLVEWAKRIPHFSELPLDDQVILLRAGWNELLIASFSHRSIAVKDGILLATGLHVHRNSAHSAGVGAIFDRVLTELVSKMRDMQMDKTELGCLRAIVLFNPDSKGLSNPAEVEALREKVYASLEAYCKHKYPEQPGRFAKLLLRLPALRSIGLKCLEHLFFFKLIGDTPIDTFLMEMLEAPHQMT
The experiment is described as follows: RXRα agonist activity assay.

Experiment [2] has as its target T2, angiotensin II receptor type 1 (AT1) (Homo sapiens, UniProt P30556).
T2 construct: expressed in transfected cells; host or cells: HEK-293
T2 sequence (P30556 1-359): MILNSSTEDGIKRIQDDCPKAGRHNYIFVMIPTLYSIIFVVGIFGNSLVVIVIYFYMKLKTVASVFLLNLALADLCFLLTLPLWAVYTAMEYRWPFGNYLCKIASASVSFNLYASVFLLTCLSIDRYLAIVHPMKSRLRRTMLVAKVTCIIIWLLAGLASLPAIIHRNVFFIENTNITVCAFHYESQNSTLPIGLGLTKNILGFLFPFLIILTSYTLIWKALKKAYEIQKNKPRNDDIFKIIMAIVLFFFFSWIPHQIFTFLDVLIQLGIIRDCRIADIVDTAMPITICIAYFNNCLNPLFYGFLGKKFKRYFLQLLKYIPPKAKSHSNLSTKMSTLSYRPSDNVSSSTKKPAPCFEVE
The experiment is described as follows: AT1 antagonist activity: inhibition of response to 3 nM angiotensin-II, intracellular Ca2+ by fluorimetry. The experiment is classed as cell-based. To be noted: HEK-293 cells expressing hAT1.

The compound `C=C(c1ccc(-n2nn[nH]c2=O)cc1)c1cc2c(cc1C)C(C)(C)CCC2(C)C` [6u, 1-(4-(1-(3,5,5,8,8-pentamethyl-5,6,7,8-tetrahydronaphthalen-2-yl)vinyl)phenyl)-1,4-dihydro-5h-tetrazol-5-one] returned an EC50 in experiment [1] of 64 nM.
With `CCCc1nc2c(C)cc(-c3nc4ccccc4n3C)cc2n1Cc1ccc(-c2ccccc2-n2nn[nH]c2=O)cc1` [6t], in experiment [2], the midpoint of inhibition, the IC50, lay at 1.7 nM and the Kb was determined as 0.14 nM.
